Source: patent US6030643A, “Potassium, sodium and tris oxaprozin salt pharmaceutical formulations” (priority 1997, dated 2000)
Where a name gives a salt, the structure may show the parent alone. Read-outs that look alike come from different tables or passages of the source.

Columns and labels:
[1] = Solubility of oxaprozin and its salts; type: physicochemical
Light sensitivity = type: physicochemical

SMILES	solubility [1] [mg/mL]	solubility ([1]; read-out: Solubility) [mg/mL]	Photosensitivity (Light sensitivity)
O=C(O)CCc1nc(-c2ccccc2)c(-c2ccccc2)o1 [TRIS salt of oxaprozin, 4,5-diphenyl-2-oxazolepropanoic acid, tris(hydroxymethyl)aminomethanesalt]	380		
O=C(O)CCc1nc(-c2ccccc2)c(-c2ccccc2)o1 [oxaprozin, 4,5-diphenyl-2-oxazolepropionic acid]	1.7		
O=C([O-])CCc1nc(-c2ccccc2)c(-c2ccccc2)o1.[K+] [potassium salt of oxaprozin, 4,5-diphenyl-2-oxazolepropanoic acid, potassium salt]		370	photosensitive material
O=C([O-])CCc1nc(-c2ccccc2)c(-c2ccccc2)o1.[Na+] [sodium salt of oxaprozin, 4,5-diphenyl-2-oxazolepropanoic acid, sodium salt]		260	
